We go through 42 molecules from the Deep4Chem optical property database.

Values joined by “and” are separate entries in the source; they are usually repeats but may differ in a detail not shown here. Identical values can stand only once.

The nature of the data set: solvent given as SMILES.

As to `c1ccc(-c2nc(-c3ccc(-c4ccc(-c5ccc(-c6nc(-c7ccccc7)c(-c7ccccc7)o6)cc5)cc4)cc3)oc2-c2ccccc2)cc1`, under “in C1COCCO1”, the absorption maximum is listed as 352 nm.

`c1ccc2c(c1)Sc1ccccc1N2c1ccc2c(c1)C1(c3ccccc3-c3ccccc31)c1cc(N3c4ccccc4Sc4ccccc43)ccc1-2` displayed an absorption maximum (in Cc1ccccc1) of 309 nm.

Molecule `CCCCc1ccc2ccc3cccc4ccc1c2c34` gave an absorption maximum (in CCCCCC) of 338 nm, an absorption maximum (in CO) of 338 nm and an absorption maximum (in ClCCl) of 341 nm.

For `COc1cc(OC)cc(C2=C3C(C)=C(I)C(C)=[N+]3[B-](F)(F)n3c(/C=C/c4ccsc4)c(I)c(C)c32)c1`, the absorption maximum is recorded as 598 nm (in C1CCOC1), 604 nm (in CS(C)=O) and 599 nm (in ClCCl).

With `CN(C)c1ccc(C2=Nc3scc(-c4ccc(C#N)cc4)[n+]3[B-](F)(F)O2)cc1`, the absorption maximum runs as follows: (in C1CCOC1) 411 nm; (in CC#N) 411 nm; (in Cc1ccccc1) 414 nm; (in ClCCl) 415 nm.

As to `CCOC(=O)c1sc(SC)c2c(=O)n(C)nnc12`, the absorption maximum was determined as 387.5 nm (in C1CCOC1); 388 nm (in CC#N); 391 nm (in CCO); 391.5 nm (in CN(C)C=O); 391.5 nm (in CO); 393.5 nm (in CS(C)=O).

Consider `CC(=O)c1ccn2c3c(c(-c4cc[n+](C)cc4)c2c1)CN(C)C3=O`, for which, where the note is “in O”, the absorption maximum amounted to 429 nm.

Regarding `Clc1ccc(-c2cccc3ncc(-c4ccccc4)n23)cc1`, for the setting “in ClCCl”, the absorption maximum stood at 338 nm.

Take `C#Cc1ccc2cc3c(C)cc(=O)oc3cc2c1`: the absorption maximum (in CCO) is listed as 334 nm.

Turning to `Cc1ccc(Nc2ccc(Nc3ccc(C)cc3)c3c2C(=O)c2ccccc2C3=O)cc1`, the absorption maximum stood at 639 nm (in C1CCCCC1); 638 nm (in C1COCCO1); 638 nm (in CC(C)=O); 644 nm (in CCCCCCCCCCO); 641 nm (in CCCCCCCO); 642 nm (in CCCCCCO). For the same molecule, the absorption maximum by setting is: (in CCCCO) 639 nm; (in CCO) 637 nm; (in CN(C)C=O) 643 nm; (in CO) 636 nm; (in CS(C)=O) 644 nm; (in ClC(Cl)(Cl)Cl) 642 nm. The same molecule came in with an absorption maximum (in c1ccccc1) of 642 nm.

Molecule `O=C1OC(=O)C2=C1[Se][C@]13C2=C[C@H](c2ccccc21)c1ccccc13` returned an absorption maximum (in ClCCl) of 421 nm.

With `Fc1c(-c2nnc(-c3ccccc3)o2)c(-n2c3ccccc3c3ccccc32)c(F)c(-n2c3ccccc3c3ccccc32)c1-n1c2ccccc2c2ccccc21`, for the setting “in Cc1ccccc1”, the absorption maximum amounted to 361 nm.

The molecule `CCCCCCN1C(=O)c2cccc3c(-c4ccc(-c5cc(-c6ccc(Cl)cc6)nn5-c5ccccc5)s4)ccc(c23)C1=O` registered an absorption maximum (in ClCCl) of 389 nm.

On to `COc1ccc2cc([C@H](C)C(=O)O)ccc2c1`, for which the absorption maximum is, setting by setting: (in CC#N) 332.4 nm; (in CCCCO) 333.3 nm; (in CCO) 332.2 nm; (in CO) 332.4 nm; (in ClCCl) 333.6 nm; (in O) 331.2 nm.

`CC(=O)Nc1ccc(C2=C/C(=C\c3ccc(C#N)cc3)C(=O)N2CC(C)C)cc1` registered an absorption maximum (in C1COCCO1) of 450 nm.

For the molecule `CC[N+]1(CC)CN2C(=N1)C(C(=O)O)=Cc1cc(Oc3ccccc3)ccc12`, the absorption maximum (in O) came to 387 nm.

With `CN(CCO)c1ccc(/N=N/c2ccc([N+](=O)[O-])cc2)cc1`, the absorption maximum (in CO) stood at 487 nm, the absorption maximum (in OCC(O)CO) is 509 nm, the absorption maximum (in OCCO) was determined as 498 nm and the absorption maximum (in Oc1ccccc1) was 548 nm.

On to `CN(C)c1ccc(C#Cc2ccccc2)cc1`, for which the absorption maximum came to 316.9 nm (in C1CCCCC1); 328.8 nm (in C1CCOC1); 326.61 nm (in C1COCCO1); 327.1 nm (in CC1CCCO1); 329.4 nm (in CC(C)=O); 315 nm (in CC(C)CC(C)(C)C). Also, the absorption maximum by setting is: (in CC(C)O) 321.4 nm; (in CCCCCCCCCCCCCCCC) 316.9 nm; (in CCCCCCCCCCCCCCCCCl) 330 nm; (in CO) 324 nm; (in Cc1ccccc1) 326.3 nm.

As to `ClC1=CN2C[n+]3cc(Cl)ccc3N=C2C=C1`, the absorption maximum (in CO) is reported as 433 nm.

With `O=C1/C(=C\c2ccc(N(c3ccccc3)c3ccccc3)cc2)S(=O)(=O)c2ccccc21`, the absorption maximum (in C1CCOC1) is 473 nm; the absorption maximum (in C1COCCO1) is recorded as 475 nm; the absorption maximum (in CC#N) turned out to be 475 nm; the absorption maximum (in CC(C)=O) is recorded as 472 nm; the absorption maximum (in CCOC(C)=O) is 471 nm; the absorption maximum (in CN(C)C=O) stood at 478 nm. Also, the absorption maximum is, setting by setting: (in CO) 477 nm; (in CS(C)=O) 482 nm; (in Cc1ccccc1) 485 nm; (in ClC(Cl)Cl) 491 nm; (in ClCCl) 485 nm.

In the case of `COc1cc(OC)cc(-c2ccc(C3=CC(c4ccccc4)=C(c4ccccc4)C3)cc2)c1`, the absorption maximum (in ClCCl) was found to be 366 nm.

In the case of `Oc1ccc2ccccc2c1/C=N/c1ccccc1/N=C/c1c(O)ccc2ccccc12`, the absorption maximum (in CC#N) stood at 429 nm.

In turn, `CC(C)(C)c1ccc2c(c1)c1cc(C(C)(C)C)ccc1n2-c1ccc(S(=O)(=O)c2cccc(S(=O)(=O)c3ccc(-n4c5ccc(C(C)(C)C)cc5c5cc(C(C)(C)C)ccc54)cc3)c2)cc1` had an absorption maximum (in Cc1ccccc1) of 348 nm.

As to `Cc1ccccc1N1c2sc3ccccc3c2Sc2sc3ccccc3c21`, where the note is “in ClCCl”, the absorption maximum was 325 nm.

Take `COc1ccc(N(c2ccc(OC)cc2)c2ccc(-c3ccc4c(c3)C(=O)c3ccccc3C4=O)cc2)cc1`: the absorption maximum is, setting by setting: (in C1CCOC1) 477 nm; (in CCCCCC) 468 nm; (in CCOC(C)=O) 472 nm; (in CCOCC) 472 nm; (in Cc1ccccc1) 481 nm; (in ClC(Cl)(Cl)Cl) 483 nm. The molecule also came in with an absorption maximum (in ClCCl) of 485 nm.

Regarding `O=Cc1ccc(-c2cccc(-c3nc4ccccc4s3)c2O)s1`, the absorption maximum (in CCO) was determined as 367 nm and the absorption maximum (in ClCCl) is on record as 370 nm.

With `CCSSCC`, the absorption maximum (in CCCCCC) was 250 nm.

For `CC1CCC(O)(c2ccc(-c3cccs3)s2)CC1` (stereo not drawn), the absorption maximum (in C1CCOC1) is reported as 341 nm; the absorption maximum (in CC#N) worked out at 341 nm; the absorption maximum (in CCCCCC) was found to be 341 nm; the absorption maximum (in CCO) was 341 nm; the absorption maximum (in OCCOCCO) was found to be 345 nm; the absorption maximum (in c1ccncc1) is reported as 345 nm.

With `c1ccc(-c2nc(-c3ccc(-c4nc(-c5ccccc5)c(-c5ccccc5)[nH]4)cc3)[nH]c2-c2ccccc2)cc1`, the absorption maximum runs as follows: (in C1CCOC1) 361 nm; (in CC#N) 355 nm and 358 nm; (in CC(=O)O) 360 nm; (in CC(C)=O) 360 nm; (in CCOC(C)=O) 359 nm; (in CCOCC) 359 nm. Also, the absorption maximum (in CO) is on record as 357 nm, the absorption maximum (in CS(C)=O) is 380 nm and the absorption maximum (in ClC(Cl)Cl) came to 358 nm.

On to `COc1ccc(-c2cc3c(s2)c(-c2ccccc2)cc(=O)n3C)cc1`, for which the absorption maximum worked out at 384 nm (in CC#N) and 386 nm (in ClCCl).

`COc1ccc(/C=C(\C#N)c2nc(-c3ccc(OC)cc3)cs2)cc1`: the absorption maximum (in CC#N) is given as 380 nm.

`CC1(C)CC(/C=C/c2ccc(-n3c4ccccc4c4ccccc43)cc2)=CC(=C(C#N)C#N)C1` came in with an absorption maximum (in C1CCOC1) of 408 nm; an absorption maximum (in CC#N) of 405 nm; an absorption maximum (in CCO) of 414 nm; an absorption maximum (in CCOC(C)=O) of 407 nm; an absorption maximum (in ClCCl) of 410 nm; an absorption maximum (in c1ccccc1) of 422 nm.

On to `Cc1c(C)n2c(COC(=O)CNC(=O)OC(C)(C)C)c(C)c(=O)n2c1=O`, for which, under “in CCO”, the absorption maximum was determined as 374 nm.

Under “in Cc1ccccc1”, `CC1(C)c2ccccc2N(c2ccc(C(=C(C#N)C#N)c3ccc(N4c5ccccc5C(C)(C)c5ccccc54)cc3)cc2)c2ccccc21` came in with an absorption maximum of 436 nm.

For the molecule `CC/[NH+]=c1\cc2oc3cc(NCCC(=O)NC(CCC(=O)OC)C(=O)OC)c4ccccc4c3nc-2cc1C` (stereo not drawn), the absorption maximum is, setting by setting: (in CCO) 600 nm; (in O) 600 nm.

With `Cc1ccc(N(CC(=O)[O-])CC(=O)[O-])cc1OCCOc1cc(-c2cc3ccc(C(=O)[O-])cc3[nH]2)ccc1N(CC(=O)[O-])CC(=O)[O-]`, the absorption maximum (in O) is recorded as 349 nm.

Molecule `c1ccc(-c2nc(-c3ccccc3)nc(-c3ccc(-n4c5ccccc5c5cc6c(cc54)C(c4ccccc4)(c4ccccc4)c4ccccc4-6)cc3)n2)cc1` registered an absorption maximum (in Cc1ccccc1) of 366 nm.

On to `CC(C)c1ccc2ccc3c(C(C)C)ccc4ccc1c2c43`, for which the absorption maximum is 345 nm (in CCCCCC), 343 nm (in CO) and 346 nm (in ClCCl).

For the setting “in ClCCl”, `Cc1cccc(C)c1/C=C/c1nc(N2CCOCC2)c2c([n+]1[O-])CCCC2` registered an absorption maximum of 384 nm.

As for `CC(C)(C)[Si](C)(C)C#Cc1c2c(=O)c3ccccc3c2c(C#C[Si](C)(C)C(C)(C)C)c2c(=O)c3ccccc3c12`, the absorption maximum (in ClC(Cl)Cl) was determined as 526 nm.

With `CCCCCCCCOc1ccc(C#Cc2ccc3oc4ccccc4c3c2)c(OCCCCCCCC)c1`, for the setting “in ClCCl”, the absorption maximum was found to be 314 nm.

Consider `CC(C)(C)c1ccc(Oc2cc3c4c(cc(Oc5ccc(C(C)(C)C)cc5)c5c6c(Oc7ccc(C(C)(C)C)cc7)cc7c8c(cc(Oc9ccc(C(C)(C)C)cc9)c(c2c45)c86)C(=O)C2=C7O[B-](F)(F)[n+]4c2ccc2ccccc24)C2=C(C3=O)c3ccc4ccccc4[n+]3[B-](F)(F)O2)cc1`, for which, for the setting “in ClCCl”, the absorption maximum is on record as 650 nm.
